The values that follow come from patent US8663711B2, “Use of armillaridin for treating cancer” (Mackay Memorial Hospital, priority 2012, dated 2014).

Where two headings read alike, the source gives them in different places.

Data set [1] concerns CE81T/VGH cells. Put plainly: Radiation treatment and clonogenic assay. Type of data set: cell-based, human. The settings on record: pre-treatment 2.5 or 5 μM for 24 hours, then 0-4 Gy radiation, colonies counted after 14 days. Here is the method:
Approximately 100 variable tumor cells were respectively plated onto 35-mm six-well culture dishes and were allowed to grow in DMEM medium contained 10% FCS mixed with 0, 1.25, 2.5 or 5 μM of the test compound of this disclosure (i.e., CH-205-O), and the test compound-treated cells were continued culture for 24 hours. The test compound was then washed out, and cells were subject to radiation treatment. Specifically, 6 MeV electron beam energy was delivered by a linear accelerator (Clinac 1800, Varian Associates, Inc., Palo Alto, Calif., USA) with a rate of 2.4 Gy/min at various dose including 0, 0.5, 1, 2, 3 and 4 Gy in a single fraction. Full electron equilibrium was ensured for each fraction by a parallel plate PR-60C ionization chamber (CAPINTEL, Inc., Ramsey, N.Y., USA).
After radiation treatment, cells were returned to the culture for another 14 days; then were stained with 3% crystal violet and the numbers of colony (≧50 cells) were counted.
To this purpose, cancerous cells were pre-treated with 1.25, 2.5 or 5 μM CH-205-O, before being treated with various doses of radiation in accordance with procedures described in “Materials and Methods” section. […]

In data set [2] the test system is CE81T/VGH cells xenografted esophageal tumor. Description: Xenograft esophageal cancer mice model. Type of data set: in vivo, Balb/c nude mice. Here is the method:
For primary esophageal cancer model, total of 9 Balb/c nude mice at the age of 6 weeks were randomly divided into 3 groups, with 3 mice in each group. To start the experiment, each mice were injected with 5×10^5 CE81T/VGH cells subcutaneously to generate esophageal cancer on day 0, and then returned to culture for another 21 days to allow tumor progression. To evaluate the efficacy of the test compound, mice in the test group were given 3 doses of the test compound (CH-205-O at 80 mg/Kg/dose; or cisplatin at 2.5 mg/Kg/dose) every week, and total of […] were given during a period of 20 days after treatment started on day 22. Tumor sizes were measured using calipers. The body weight and the white blood cell counts of each mice were respectively recorded every day throughout the experiment. Tumor volume was calculated using the formula: volume=width^2×length×0.52.
Effects of CH-205-O of this disclosure on mice grafted with CE81T/VGH cells were investigated by measuring the grafted tumor volume; body weight and the number of white blood cells of the mice in accordance with steps described in “Materials and Methods” section. Results are illustrated in FIG. 3.

For data set [3], the system named is BE-3 human esophageal adenocarcinoma cell line. Put plainly: Trypan blue exclusion test, cell viability. The class given is cell-based. The settings on record: BE-3, 72 hours, read-out: IC50 (concentration required to reduce viability by 50%). Here is the method: (§1) Cell lines used in the present disclosure include human esophageal squamous carcinoma cell lines CE81T/VGH and TE-2, and human esophageal adenocarcinoma cell lines BE-3 and SKGT-4. Each cell lines were cultured and maintained in Dulbecco's modified Eagle media (DMEM) supplemented with 10% fetal calf serum, 100 IU/ml penicillin, 100 μg/ml streptomycin, and 2 mM glutamine in 5% CO2 at 37° C.
(§2) The dye exclusion test is used to determine the number of viable cells present in a cell suspension. […] In this test, the cells were first treated with a test compound (i.e., CH-205-O) for a certain period of time (e.g., 72 hours), then the cells were harvested and re-suspended in suitable buffer solution. The cell suspension was then mixed with trypan blue dye and then visually examined to determine whether cells had taken up or excluded the dye. A viable cell will have a clear cytoplasm, whereas a nonviable cell will have a blue cytoplasm. The concentration required to reduce viability by 50% (IC50) after 72 hours was extrapolated from the dose-response curves by different concentrations of the test compound using a second-order polynomial regression model and analyzing with SigmaPlot Software (Systat Software Inc., San Jose, Calif.).
(§3) The human esophageal cancer cell lines including squamous cell carcinoma cell lines CE81T/VGH and TE-2, and adenocarcinoma cell lines BE-3 and SKGT-4 were cultured and maintained by procedures described above in the “Materials and Methods” Section. Anti-proliferative activity of armillaridin (hereafter “CH-205-O”) on each cell lines was assessed by cell viability and cell cycle analysis.

For data set [4], the system named is TE-2 human esophageal squamous carcinoma cell line. Description: Trypan blue exclusion test, cell viability. The class given is cell-based. The settings on record: TE-2, 72 hours, read-out: IC50 (concentration required to reduce viability by 50%). Here is the method: as §1, §2, §3
In data set [5] the test system is CE81T/VGH human esophageal squamous carcinoma cell line. Put plainly: Trypan blue exclusion test, cell viability. The class given is cell-based. The settings on record: read-out: IC50 (concentration required to reduce viability by 50%). Here is the method: as §1, §2, §3
Data set [6] deals with SKGT-4 human esophageal adenocarcinoma cell line. Put plainly: Trypan blue exclusion test, cell viability. The class given is cell-based. The settings on record: SKGT-4, 72 hours, read-out: IC50 (concentration required to reduce viability by 50%). Here is the method:
as §1, §2, §3

The subject of data set [7] is CE81T/VGH cells. Put plainly: Cell cycle analysis by flow cytometry (propidium iodine). The class given is cell-based, human. Here is the method:
FIG. 1 illustrates the effects of CH-205-O (i.e., armillaridin) on cell cycle distribution in CE81T/VGH cells in accordance with one embodiment of this invention, in which upper panels represented results obtained from CE81T/VGH cells treated with 0 (panel A), 10 μM (panel B) or 20 μM (panel C) of CH-205-O for 48 hours, and lower panels represented results obtained from CE81T/VGH cells treated with 0 (panel D), 10 μM (panel E) or 20 μM (panel F) of CH-205-O for 72 hours;
Cultured cells with or without pre-treatment of the compound of this invention (i.e., armillaridin at 10 or 20 μM for 48 or 72 hours) were harvested from the cultured media and fixed by incubating with 75% iced cold ethanol at 4° C. for at least over night. The fixed cells were then warmed up to room temperature and treated with RNAase A for about 30 min. Precipitated cells were collected by centrifugation and re-suspended in a buffer solution containing propidium iodine (20 μg/ml) before being subject to flow cytometry analysis, where cell numbers at respective cell cycles were determined.

Where [8] appears, read: long-term exposure, 80 mg/Kg/dose, 12 doses.

As for `COc1cc(O)c(C(=O)O[C@@H]2C[C@]3(C)C4CC(C)(C)CC4C=C(C=O)[C@]23O)c(C)c1Cl` (stereo partly drawn) [CH-205-O, (2R,2aS,7bR)-3-formyl-2,2a,4a,5,6,7,7a,7b-octahydro-2a-hydroxy-6,6,7b-trimethyl-1H-cyclobuta[e]inden-2-yl 3-chloro-6-hydroxy-4-methoxy-2-methylbenzoate], the “Susceptibility of CE81T/VGH cells to radiation treatment (colony formation)” value in the data set with CE81T/VGH cells [1] was “capable of enhancing the susceptibility of CE81T/VGH cells to radiation treatment”. In addition, in data set [2] (80 mg/Kg/dose, at least 12 doses, compared with control mice (vehicle only)), the “Volume of the xenografted esophageal tumor” value is on record as “effective in reducing the volume of the xenografted esophageal tumor significantly”. Also, the “Body weight of the mice” value in data set [2] (setting [8]) is “does not affect”. For the same molecule, the “Number of white blood cells of the mice” value in data set [2] (setting [8]) is on record as “does not affect”. The “Reduction of the size of the cancer as compared with control” value in data set [2] (long-term exposure, at least 12 doses within 20 days, 3 doses per week) is reported as “at least 50%”. Besides, the IC50 in data set [3] is 5.4 µM; in data set [3] (Homo sapiens, 72 h), about 5 µM; in data set [4] (Homo sapiens, 72 h), about 3 µM; in data set [4], 3.4 µM; in data set [5] (72 hours), 6.9 µM; in data set [5] (Homo sapiens, CE81T, 72 h), about 7 µM. Besides, the IC50 was about 5 µM in data set [6] (Homo sapiens, SKGT4, 72 h) and 5.5 µM in data set [6]. In addition, the “Cell cycle arrest at G2/M phase” value in the data set on CE81T/VGH cells [7] (10 or 20 μM for 48 hours, CE81T/VGH cells) is reported as “capable of arresting the CE81T/VGH cells at G2/M phase in a dose-dependent manner”. Also, the “sub-G1 population of cells” value in the data set with CE81T/VGH cells [7] (10 or 20 μM, treatment for 72 hours, CE81T/VGH cells) is recorded as “induce an increase in the sub-G1 population of cells”. Also, the “Esophageal cancerous cells arrested at G2/M cycle” value in the data set with CE81T/VGH cells [7] (one specific example) was “at least 50%”.
